Blank lines part the entries; values can stand above or below the compound they belong to. Activity calls are given as the source filed them.
Key:
[1] = molecular target: ADP-ribosylation factor GTPase-activating protein 1 (Rattus norvegicus, UniProt Q62848); assay: Fluorescence polarization-based biochemical high throughput dose response screening assay to identify inhibitors of ADP-ribosylation factor GTPase activating protein 1 (ARFGAP1).; type: functional
[2] = non-specific cell cytotoxicity, dose response, cytotoxicity control for PAX8 inhibitor project, plate reader, dry powder samples (AID 743021); type: functional, cell-based
[3] = control 3'UTR Renilla luciferase suppression, dose response, counter-screen for Shn3 inhibitor project, cell-based, Clone20-Shn3RL, cherry-picked (AID 624133); type: functional
Paired box protein Pax-8 = Paired box protein Pax-8 (Homo sapiens, UniProt Q06710); assay: inhibitors of PAX8-driven TPO luciferase reporter, dose response, RMG-I cells, cherry-pick (AID 687027); type: functional, cell-based;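 also: luciferase reporter driven by Pax8 target thyroperoxidase promoter measured by SteadyGlo luminescence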
Paired box protein Pax-8, sequence (Q06710 whole entry): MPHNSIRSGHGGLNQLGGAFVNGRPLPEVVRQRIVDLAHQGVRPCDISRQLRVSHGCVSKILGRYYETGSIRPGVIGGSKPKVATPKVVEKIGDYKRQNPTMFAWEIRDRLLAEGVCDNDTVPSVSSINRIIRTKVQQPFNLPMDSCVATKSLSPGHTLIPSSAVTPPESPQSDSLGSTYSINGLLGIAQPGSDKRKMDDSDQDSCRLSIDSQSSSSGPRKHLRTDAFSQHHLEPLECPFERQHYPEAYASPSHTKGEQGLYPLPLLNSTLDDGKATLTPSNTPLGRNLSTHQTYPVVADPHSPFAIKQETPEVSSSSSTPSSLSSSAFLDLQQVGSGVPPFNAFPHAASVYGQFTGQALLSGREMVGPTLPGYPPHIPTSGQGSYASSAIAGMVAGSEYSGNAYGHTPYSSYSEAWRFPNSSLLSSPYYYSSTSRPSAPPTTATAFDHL

[4] = HepG2 cell cytotoxicity, dose response, cytotoxicity control for Shn3 inhibitor project, CellTiter-Glo, cherry-picked (AID 624134); type: functional, cell-based
Beta Lactamase = Beta Lactamase (Pseudomonas aeruginosa, UniProt Q932Y6); assay: beta-lactamase reporter inhibitor potency, dose response, artefact control for NOD2-RIPK2 interaction inhibitor project, BLA reporter cells, FRET fluorescence (AID 651552); type: functional, cell-based
Beta Lactamase, sequence (Q932Y6 whole entry): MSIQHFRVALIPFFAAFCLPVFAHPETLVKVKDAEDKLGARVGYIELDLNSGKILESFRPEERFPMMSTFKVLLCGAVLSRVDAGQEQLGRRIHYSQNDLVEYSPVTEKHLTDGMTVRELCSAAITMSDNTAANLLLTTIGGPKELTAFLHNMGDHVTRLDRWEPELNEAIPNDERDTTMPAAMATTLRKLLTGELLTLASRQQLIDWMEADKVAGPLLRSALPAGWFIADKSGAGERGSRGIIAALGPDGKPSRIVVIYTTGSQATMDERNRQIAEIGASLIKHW

[5] = Shn3 3'UTR reporter inhibitors, dose response, cell-based, Clone20 osteoblasts, firefly luciferase, cherry-picked (AID 624132); type: functional;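 also: firefly luciferase luminescence from reporter carrying the Shn3 3'UTR in osteoblasts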
[6] = Fluorescence-based cell-based high throughput dose response assay for inhibitors of the interaction of nucleotide-binding oligomerization domain containing 2 (NOD2) and the receptor-interacting serine-threonine kinase 2 (RIPK2).; type: functional; details: Homo sapiens
[7] = molecular target: Potassium voltage-gated channel subfamily KQT member 2 (Rattus norvegicus, UniProt O88943); assay: KCNQ2 potassium channel inhibitors, dose response, cell-based, automated electrophysiology, set II, rat KCNQ2 (AID 588637); type: functional
Potassium voltage-gated channel subfamily KQT member 2, sequence (O88943 whole entry): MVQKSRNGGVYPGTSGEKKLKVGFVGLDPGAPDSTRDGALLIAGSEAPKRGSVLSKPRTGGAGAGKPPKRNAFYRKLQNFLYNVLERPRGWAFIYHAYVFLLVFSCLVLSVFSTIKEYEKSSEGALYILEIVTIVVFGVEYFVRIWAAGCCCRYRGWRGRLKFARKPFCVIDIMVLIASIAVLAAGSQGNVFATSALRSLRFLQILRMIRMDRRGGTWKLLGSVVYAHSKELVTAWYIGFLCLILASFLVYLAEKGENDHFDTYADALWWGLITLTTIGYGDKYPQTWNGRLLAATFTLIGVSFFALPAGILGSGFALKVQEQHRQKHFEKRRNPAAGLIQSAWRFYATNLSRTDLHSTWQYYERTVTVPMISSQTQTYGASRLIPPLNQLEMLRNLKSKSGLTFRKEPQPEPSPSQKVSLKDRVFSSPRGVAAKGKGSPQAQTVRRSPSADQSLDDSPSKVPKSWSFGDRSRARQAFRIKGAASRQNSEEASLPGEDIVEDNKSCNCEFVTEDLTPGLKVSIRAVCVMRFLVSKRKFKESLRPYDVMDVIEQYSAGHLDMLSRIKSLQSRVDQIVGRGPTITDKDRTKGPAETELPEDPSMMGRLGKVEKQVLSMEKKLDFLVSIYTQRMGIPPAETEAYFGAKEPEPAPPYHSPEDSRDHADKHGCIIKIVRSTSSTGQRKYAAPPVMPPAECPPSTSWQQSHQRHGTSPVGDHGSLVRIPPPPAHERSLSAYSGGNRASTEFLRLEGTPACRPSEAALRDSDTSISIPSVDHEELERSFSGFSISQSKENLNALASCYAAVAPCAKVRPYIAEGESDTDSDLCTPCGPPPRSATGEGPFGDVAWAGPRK

[8] = molecular target: Tyrosine-protein phosphatase non-receptor type 5 (Homo sapiens, UniProt P54829); assay: STEP phosphatase inhibitors, confirmation, biochemical, fluorescence intensity, uHTS hits (AID 602372); type: functional; details: read-out: IC50_Mean
Tyrosine-protein phosphatase non-receptor type 5, sequence (P54829 whole entry): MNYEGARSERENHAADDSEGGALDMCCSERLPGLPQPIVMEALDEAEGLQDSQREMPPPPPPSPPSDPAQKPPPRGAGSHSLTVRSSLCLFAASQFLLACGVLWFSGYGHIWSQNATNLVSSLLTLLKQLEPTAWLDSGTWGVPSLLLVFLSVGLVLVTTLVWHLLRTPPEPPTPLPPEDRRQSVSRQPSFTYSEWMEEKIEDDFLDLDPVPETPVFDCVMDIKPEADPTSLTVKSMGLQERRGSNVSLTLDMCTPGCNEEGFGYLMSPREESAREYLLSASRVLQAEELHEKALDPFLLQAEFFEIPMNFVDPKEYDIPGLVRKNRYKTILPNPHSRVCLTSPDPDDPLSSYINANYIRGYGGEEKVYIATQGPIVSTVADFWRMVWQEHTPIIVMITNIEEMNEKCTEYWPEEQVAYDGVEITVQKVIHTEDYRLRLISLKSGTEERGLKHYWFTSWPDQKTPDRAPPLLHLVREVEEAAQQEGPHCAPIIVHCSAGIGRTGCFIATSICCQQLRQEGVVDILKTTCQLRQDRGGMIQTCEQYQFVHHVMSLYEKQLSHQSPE

[9] = molecular target: Tyrosine-protein phosphatase non-receptor type 11 (Homo sapiens, UniProt Q06124); assay: SHP2 phosphatase inhibition, dose response, selectivity assay for STEP inhibitor project, biochemical (AID 602367); type: functional; details: read-out: IC50_Mean
[10] = molecular target: T1, Tyrosine-protein phosphatase non-receptor type 22 (Homo sapiens, UniProt Q9Y2R2); assay: PTPN22 phosphatase inhibition, dose response, selectivity assay for STEP inhibitor project, biochemical (AID 624241); type: functional
T1 sequence (Q9Y2R2 whole entry): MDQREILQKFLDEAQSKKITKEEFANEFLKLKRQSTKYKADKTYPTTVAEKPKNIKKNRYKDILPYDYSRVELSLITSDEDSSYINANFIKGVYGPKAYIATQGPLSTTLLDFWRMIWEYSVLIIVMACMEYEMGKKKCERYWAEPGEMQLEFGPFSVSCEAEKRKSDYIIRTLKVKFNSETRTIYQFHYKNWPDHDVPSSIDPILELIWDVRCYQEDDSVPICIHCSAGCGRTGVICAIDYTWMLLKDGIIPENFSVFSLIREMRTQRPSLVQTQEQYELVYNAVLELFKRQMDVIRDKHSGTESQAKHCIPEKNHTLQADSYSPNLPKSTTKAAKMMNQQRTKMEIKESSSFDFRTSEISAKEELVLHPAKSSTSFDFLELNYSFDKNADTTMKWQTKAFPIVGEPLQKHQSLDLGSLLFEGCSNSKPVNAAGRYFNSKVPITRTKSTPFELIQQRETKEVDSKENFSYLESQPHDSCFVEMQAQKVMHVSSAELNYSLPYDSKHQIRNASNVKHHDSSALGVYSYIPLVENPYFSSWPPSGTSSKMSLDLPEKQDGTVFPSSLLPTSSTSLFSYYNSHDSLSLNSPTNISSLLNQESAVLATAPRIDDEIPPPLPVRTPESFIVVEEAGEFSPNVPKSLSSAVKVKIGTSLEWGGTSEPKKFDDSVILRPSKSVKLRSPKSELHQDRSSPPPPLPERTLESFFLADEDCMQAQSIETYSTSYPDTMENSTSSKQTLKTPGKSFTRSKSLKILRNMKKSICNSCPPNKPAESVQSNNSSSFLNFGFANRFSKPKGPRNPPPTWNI

[11] = molecular target: Dual specificity protein phosphatase 3 (Homo sapiens, UniProt P51452); assay: VHR phosphatase inhibition, dose response, selectivity assay for STEP inhibitor project, biochemical (AID 602374); type: functional; details: read-out: IC50_Mean
Dual specificity protein phosphatase 3, sequence (P51452 whole entry, the tested form may be a part): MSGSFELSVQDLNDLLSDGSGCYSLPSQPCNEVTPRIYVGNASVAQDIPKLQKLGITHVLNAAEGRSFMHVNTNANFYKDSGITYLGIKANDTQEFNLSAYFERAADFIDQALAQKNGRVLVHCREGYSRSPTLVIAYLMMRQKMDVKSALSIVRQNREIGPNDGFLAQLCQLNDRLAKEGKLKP

[12] = molecular target: T2, RNA-binding protein pos-1 (Caenorhabditis elegans, UniProt G5EF15); assay: inhibitors of POS-1/mex-3 RNA binding, dose response, biochemical, fluorescence polarization (AID 1964);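 also: purified POS-1 fused to maltose binding protein made in E. coli; potency of compounds blocking POS-1 binding to fluorescent RNA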
T2 sequence (G5EF15 whole entry): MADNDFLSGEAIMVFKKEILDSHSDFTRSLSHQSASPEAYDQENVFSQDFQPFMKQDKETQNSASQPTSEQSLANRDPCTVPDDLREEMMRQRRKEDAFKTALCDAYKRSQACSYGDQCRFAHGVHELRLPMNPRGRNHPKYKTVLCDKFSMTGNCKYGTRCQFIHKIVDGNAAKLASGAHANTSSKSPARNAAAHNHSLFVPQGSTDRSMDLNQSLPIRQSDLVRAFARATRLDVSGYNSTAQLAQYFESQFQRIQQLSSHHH

[13] = molecular target: T3, Sentrin-specific protease 1 (Homo sapiens, UniProt Q9P0U3); assay: potency of human SENP1 inhibitors, dose response, biochemical, kinetic FRET (AID 651697); type: functional; details: read-out: IC50_Mean
T3 sequence (Q9P0U3 whole entry): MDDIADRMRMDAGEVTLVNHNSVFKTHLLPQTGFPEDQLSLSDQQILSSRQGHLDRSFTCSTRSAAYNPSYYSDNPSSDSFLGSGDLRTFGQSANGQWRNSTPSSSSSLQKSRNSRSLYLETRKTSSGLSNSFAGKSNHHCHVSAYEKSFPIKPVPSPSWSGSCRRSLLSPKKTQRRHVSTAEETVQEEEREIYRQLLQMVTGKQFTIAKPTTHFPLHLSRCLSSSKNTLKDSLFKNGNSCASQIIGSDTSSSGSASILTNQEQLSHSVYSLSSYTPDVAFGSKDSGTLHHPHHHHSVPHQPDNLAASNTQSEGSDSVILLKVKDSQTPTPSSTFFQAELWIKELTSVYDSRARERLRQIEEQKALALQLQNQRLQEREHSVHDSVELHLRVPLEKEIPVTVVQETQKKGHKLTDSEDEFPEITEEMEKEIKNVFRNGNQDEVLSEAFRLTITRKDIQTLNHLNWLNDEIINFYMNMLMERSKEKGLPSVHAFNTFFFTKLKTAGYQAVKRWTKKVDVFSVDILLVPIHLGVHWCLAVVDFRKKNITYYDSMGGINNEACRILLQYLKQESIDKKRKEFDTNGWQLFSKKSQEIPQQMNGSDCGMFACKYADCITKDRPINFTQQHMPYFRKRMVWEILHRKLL

[14] = molecular target: T4, Zinc finger protein mex-5 (Caenorhabditis elegans, UniProt Q9XUB2); assay: MEX-5/TCR-2 RNA interaction inhibitors, dose response, biochemical, C. elegans, fluorescence polarization (AID 1960)
T4 sequence (Q9XUB2 whole entry): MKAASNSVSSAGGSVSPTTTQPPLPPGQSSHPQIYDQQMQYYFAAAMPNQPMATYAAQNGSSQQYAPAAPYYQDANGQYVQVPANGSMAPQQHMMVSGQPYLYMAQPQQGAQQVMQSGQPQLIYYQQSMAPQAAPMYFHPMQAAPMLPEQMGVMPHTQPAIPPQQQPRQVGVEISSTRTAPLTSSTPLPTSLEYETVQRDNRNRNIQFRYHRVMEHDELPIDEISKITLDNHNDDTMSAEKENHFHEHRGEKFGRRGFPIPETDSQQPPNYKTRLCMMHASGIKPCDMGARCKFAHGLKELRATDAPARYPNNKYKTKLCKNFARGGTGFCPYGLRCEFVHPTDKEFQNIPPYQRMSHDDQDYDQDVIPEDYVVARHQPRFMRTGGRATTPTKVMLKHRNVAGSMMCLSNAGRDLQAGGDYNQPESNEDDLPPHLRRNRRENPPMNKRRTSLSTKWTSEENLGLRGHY

[15] = molecular target: T3, Sentrin-specific protease 1; assay: Dose response confirmation of small molecule inhibitors of the catalytic domain of the SUMO protease, SENP1 in a FRET assay.; type: functional; details: read-out: IC50_Mean
[16] = molecular target: Matrix metalloproteinase-14 (Homo sapiens, UniProt P50281); assay: Dose Response confirmation of uHTS hits for a small molecule inhibitors of MT1-MMP activation in a fluorescence assay set 1.; type: functional

ADP-ribosylation factor GTPase-activating protein 1, sequence (Q62848 whole entry): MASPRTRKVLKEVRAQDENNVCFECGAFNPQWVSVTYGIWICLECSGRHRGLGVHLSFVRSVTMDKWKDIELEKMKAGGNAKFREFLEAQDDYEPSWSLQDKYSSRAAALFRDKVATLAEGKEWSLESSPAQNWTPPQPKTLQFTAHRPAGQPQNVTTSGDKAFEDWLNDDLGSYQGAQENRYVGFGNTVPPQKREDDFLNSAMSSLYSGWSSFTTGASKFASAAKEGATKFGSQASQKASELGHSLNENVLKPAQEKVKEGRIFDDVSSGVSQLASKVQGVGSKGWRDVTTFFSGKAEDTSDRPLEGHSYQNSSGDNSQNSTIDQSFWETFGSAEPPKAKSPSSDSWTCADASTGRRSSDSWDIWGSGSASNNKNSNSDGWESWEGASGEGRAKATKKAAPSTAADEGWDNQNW

Compound: O/N=C\c1ccc2noc(-c3ccc(Cl)cc3)c2c1
IC50 [1]: 50.7 µM (inactive)

Compound: C=C1C(=O)C23C(O)C1CCC2C12CCCC(C)(COC(C)=O)C1C(O)C3(O)OC2 (stereo not drawn)
AC50 [2]: 28.9 µM (active) | AC50 [3]: 3.84 µM (active) | AC50 (Paired box protein Pax-8): 1.86 µM (active) | AC50 [4]: 11.8 µM (active) | IC50 (Beta Lactamase): 22.1 µM (inactive) | AC50 [5]: 0.771 µM (active) | IC50 [6]: 1.19 µM (active)

Compound: CCN(CC)S(=O)(=O)c1ccc(N2CCOCC2)c(NC(=S)NC(=O)c2ccco2)c1
IC50 [7]: 0.824 µM (active)

The next lines start with the values.

IC50 [8]: 23.6 µM (inactive) | IC50 [9]: 3.25 µM (active) | IC50 [10]: 45.6 µM (inactive) | IC50 [11]: 0.937 µM (active)
Compound: CN(C)c1ccc(C(=S)N2CCN(Cc3ccccc3)CC2)cc1

EC50 [12]: > 300 µM (not active) | IC50 [13]: 21.5 µM (inactive) | EC50 [14]: > 300 µM (not active) | IC50 [15]: 16.7 µM (active)
Compound: CC(C)CNC(=O)c1ccc(C2SCC(=O)N2Cc2ccccc2)cc1 (stereo not drawn)

IC50 [16]: 6 µM (active)
Compound: CCOC(=O)C1=C(C)N=c2s/c(=C\c3ccc(OC(C)=O)c(OCC)c3)c(=O)n2C1/C=C/c1ccccc1 (stereo not drawn)

From ChEMBL document CHEMBL1201862, “PubChem BioAssay data set” (2004)
